According to ChEMBL document CHEMBL1201862, “PubChem BioAssay data set” (2004):
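Step 1: Grow cells in 96-well plates. Step 2: Expose to compound for 48 hours at 5 concentrations. Step 3: Interpolate endpoints linearly; if unreached, use highest concentration. Here, GI50 denotes the concentration required for 50% inhibition of growth.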 Calls of active or inactive are those of the source. Rule as the data show it: active = GI50 up to about 1.1 µM and inactive = higher.

Tests used:
Test in all cases: NCI tumour cell line growth inhibition, 48 h
SN12C = system: SN12C
ACHN = system: ACHN
T47D = system: T47D
OVCAR-4 = system: OVCAR-4
HT-29 = system: HT-29
CCRF-CEM = system: CCRF-CEM
A498 = system: A498
SF-539 = system: SF-539
A549 = system: A549
K562 = system: K562
SW-620 = system: SW-620
HCT-15 = system: HCT-15
UACC-257 = system: UACC-257
MOLT-4 = system: MOLT-4
SK-MEL-28 = system: SK-MEL-28
BT-549 = system: BT-549
M14 = system: M14
OVCAR-3 = system: OVCAR-3
MCF7 = system: MCF7

| SMILES | GI50 (SN12C) | GI50 (ACHN) | GI50 (T47D) | GI50 (OVCAR-4) | GI50 (HT-29) | GI50 (CCRF-CEM) | GI50 (A498) | GI50 (SF-539) | GI50 (A549) | GI50 (K562) | GI50 (SW-620) | GI50 (HCT-15) | GI50 (UACC-257) | GI50 (MOLT-4) | GI50 (SK-MEL-28) | GI50 (BT-549) | GI50 (M14) | GI50 (OVCAR-3) | GI50 (MCF7) |
| --- | --- | --- | --- | --- | --- | --- | --- | --- | --- | --- | --- | --- | --- | --- | --- | --- | --- | --- | --- |
| c1ccc2nc3c(nc2c1)sc1ccccc13 | 34 µM (inactive) | 14.3 µM (inactive) | > 100 µM (inactive) | 17.5 µM (inactive) | 39.4 µM (inactive) | 30.9 µM (inactive) | 27.4 µM (inactive) | 16.4 µM (inactive) | 16.4 µM (inactive) | > 100 µM (inactive) | 56 µM (inactive) | 58.9 µM | 37.2 µM (inactive) | 21.8 µM (inactive) | > 100 µM (inactive) | 39.2 µM (inactive) | > 100 µM (inactive) | 29.4 µM (inactive) | 26.5 µM (inactive) |
| COc1cc2c(cc1OC)-c1cc3cc(OC)c(OC)cc3c(=O)n1CC2 | 14.6 µM (inactive) | 14.4 µM (inactive) | 2.58 µM (inactive) | 30.3 µM (inactive) | 28.6 µM (inactive) | 3.21 µM (inactive) | 7.59 µM (inactive) | 6.12 µM (inactive) | 41.2 µM (inactive) | 10.4 µM (inactive) | 9.51 µM (inactive) | 38.5 µM | 26.1 µM (inactive) | 3.51 µM (inactive) | > 62.1 µM (inactive) | 37.3 µM (inactive) | 27 µM (inactive) | 15.7 µM (inactive) | 5.89 µM (inactive) |
| N=C(N)c1ccc(/N=N\c2c(O)ccc3c2[nH]c2ccccc23)cc1 | 16.4 µM (inactive) | 41.6 µM (inactive) | 2.43 µM (inactive) | 6.14 µM (inactive) | 19.6 µM (inactive) | 0.25 µM (active) | 77.3 µM (inactive) | > 49.5 µM (inactive) | 2.34 µM (inactive) | 1.63 µM (inactive) | 2.32 µM (inactive) | 39.1 µM | 45.4 µM (inactive) | 2.23 µM (inactive) | 18.8 µM (inactive) | 49.8 µM (inactive) | 36.1 µM (inactive) | 2.1 µM (inactive) | 1.75 µM (inactive) |
| c1ccc([P+](c2ccccc2)(c2ccccc2)c2ccc(-c3ccc([P+](c4ccccc4)(c4ccccc4)c4ccccc4)cc3)cc2)cc1 | 26.5 µM (inactive) | 23.1 µM (inactive) | 41.4 µM (inactive) | 21.5 µM (inactive) | 20.7 µM (inactive) | 82.4 µM (inactive) | 3.97 µM (inactive) | 40 µM (inactive) | 27.7 µM (inactive) | > 100 µM (inactive) | 30.6 µM (inactive) | > 100 µM | 19.8 µM (inactive) | > 100 µM (inactive) | 49.5 µM (inactive) | 47.9 µM (inactive) | 44.9 µM (inactive) | 15.8 µM (inactive) | 36.8 µM (inactive) |
| Sc1cnnc2ccc(Br)cc12 | 69.5 µM (inactive) | 28.5 µM (inactive) | 51.9 µM (inactive) | 35.9 µM (inactive) | 26.4 µM (inactive) | 36.9 µM (inactive) | 53.3 µM (inactive) | 33 µM (inactive) | 36.1 µM (inactive) | 37.8 µM (inactive) | > 100 µM (inactive) | 78.3 µM | 29.4 µM (inactive) | 40.2 µM (inactive) | 40.4 µM (inactive) | 37.3 µM (inactive) | 61 µM (inactive) | 30.3 µM (inactive) | 34.7 µM (inactive) |
| COc1ccc(/C=C/c2nccc3ccccc23)cc1OC | 9.48 µM (inactive) | > 10 µM (inactive) | > 10 µM (inactive) | > 10 µM (inactive) | 4.05 µM (inactive) | 6.52 µM (inactive) | 9.73 µM (inactive) | > 10 µM (inactive) | > 10 µM (inactive) | 5.5 µM (inactive) | > 10 µM (inactive) | > 10 µM | > 10 µM (inactive) | 4.52 µM (inactive) | > 10 µM (inactive) | > 10 µM (inactive) | > 10 µM (inactive) | 9.2 µM (inactive) | 2.43 µM (inactive) |
| Cc1nc2ccccc2c(=O)n1NC(=O)c1ccc(CS)cc1 | 11.9 µM (inactive) | 10.9 µM (inactive) | 16.7 µM (inactive) | 15.1 µM (inactive) | 10.8 µM (inactive) | 0.82 µM (active) | 11.2 µM (inactive) | 12.9 µM (inactive) | 7.48 µM (inactive) | 6.21 µM (inactive) | 6 µM (inactive) | 16.4 µM | 20.4 µM (inactive) | 1.02 µM (active) | 12.7 µM (inactive) | 13.7 µM (inactive) | 12.2 µM (inactive) | 11.8 µM (inactive) | 5.64 µM (inactive) |
| O=c1cc(N2CCOCC2)[nH]c(=O)n1-c1cccc(C(F)(F)F)c1 | > 100 µM (inactive) | > 100 µM (inactive) | > 100 µM (inactive) | > 100 µM (inactive) | > 100 µM (inactive) | > 100 µM (inactive) | > 100 µM (inactive) | > 100 µM (inactive) | > 100 µM (inactive) | > 100 µM (inactive) | > 100 µM (inactive) | > 100 µM | > 100 µM (inactive) | > 100 µM (inactive) | > 100 µM (inactive) | > 100 µM (inactive) | > 100 µM (inactive) | > 100 µM (inactive) | > 100 µM (inactive) |
| O=C(O)c1cc(O)c2c(c1)C([C@@H]1c3cccc(O)c3C(=O)c3c(O)cc(C(=O)O)cc31)c1cccc(O)c1C2=O (stereo partly drawn) | 34.7 µM (inactive) | 81.5 µM (inactive) | 59.6 µM (inactive) | > 100 µM (inactive) | 96.2 µM (inactive) | 30.5 µM (inactive) | 22.7 µM (inactive) | 19.5 µM (inactive) | > 100 µM (inactive) | 23.8 µM (inactive) | 35.4 µM (inactive) |  | 35.5 µM (inactive) | 20.7 µM (inactive) | 33.2 µM (inactive) | 51.1 µM (inactive) | > 10 µM (inactive) | 66.5 µM (inactive) | 37 µM (inactive) |
| C=C(C)CNCC(=C)C.Oc1c(Cl)c(Cl)c(Cl)c(Cl)c1Cl | 20.2 µM (inactive) | 21.6 µM (inactive) | 18.2 µM (inactive) | 23.5 µM (inactive) | 20.1 µM (inactive) | 26.4 µM (inactive) | 20.4 µM (inactive) | 17.6 µM (inactive) | 27.9 µM (inactive) | 32.4 µM (inactive) | 31.1 µM (inactive) | 20.9 µM | > 100 µM (inactive) | 20.1 µM (inactive) | 28.2 µM (inactive) | 25.4 µM (inactive) | 26.7 µM (inactive) | 11 µM (inactive) | 26.6 µM (inactive) |
| CSCCC(NC(=O)OC(C)(C)C)C(=O)NCCNc1ccc(NCCNC(=O)C(CCSC)NC(=O)OC(C)(C)C)c2c1C(=O)c1ccccc1C2=O (stereo not drawn) | 7.71 µM (inactive) | 7.13 µM (inactive) | 5.21 µM (inactive) | 6.7 µM (inactive) | 2.64 µM (inactive) | 3.56 µM (inactive) | 4.62 µM (inactive) | 2.71 µM (inactive) | 2.84 µM (inactive) | 2.75 µM (inactive) | 2.23 µM (inactive) | > 67.6 µM | 5.65 µM (inactive) | 3.44 µM (inactive) | 1.85 µM (inactive) | 4.43 µM (inactive) | 3.85 µM (inactive) | 7.16 µM (inactive) | 6.01 µM (inactive) |
| C/C(=N\Nc1nc2ccccc2o1)c1cccc[n+]1[O-] | 18.6 µM (inactive) | 12.6 µM (inactive) | 2.89 µM (inactive) | 5.45 µM (inactive) | 5.13 µM (inactive) | 4.3 µM (inactive) | 45.1 µM (inactive) | 23.4 µM (inactive) | 24.5 µM (inactive) | 7.23 µM (inactive) | 5.12 µM (inactive) | 4.88 µM | 13 µM (inactive) | 1.5 µM (inactive) | 24.8 µM (inactive) | 81.7 µM (inactive) | 5.87 µM (inactive) | 2.69 µM (inactive) | 5.98 µM (inactive) |
| O=C(O)CO/N=C1/C(=C2/C(=O)Nc3ccccc32)Nc2ccccc21 | 88.3 µM (inactive) | > 100 µM (inactive) | 35.8 µM (inactive) | 48.5 µM (inactive) | 44.5 µM (inactive) | 43.1 µM (inactive) | 61.8 µM (inactive) | 70.3 µM (inactive) | > 100 µM (inactive) | 79.8 µM (inactive) | 62.5 µM (inactive) | 35.6 µM | > 100 µM (inactive) | 41.4 µM (inactive) | 50.8 µM (inactive) | 51.9 µM (inactive) | 41.1 µM (inactive) | 18.8 µM (inactive) | 36 µM (inactive) |
| CCc1n[nH]c(=O)n1-c1ccncc1 | > 100 µM (inactive) | > 100 µM (inactive) | > 100 µM (inactive) | > 100 µM (inactive) | > 100 µM (inactive) | > 100 µM (inactive) | > 100 µM (inactive) | > 100 µM (inactive) | > 100 µM (inactive) | > 100 µM (inactive) | > 100 µM (inactive) | > 100 µM | > 100 µM (inactive) | > 100 µM (inactive) | > 100 µM (inactive) | > 100 µM (inactive) | > 100 µM (inactive) | > 100 µM (inactive) | > 100 µM (inactive) |
| O=C1CC2(c3ccccc3)ON=C(c3ccccc3)N2c2ccccc2N1 (stereo not drawn) | 52.7 µM (inactive) | 61.8 µM (inactive) | 24.6 µM (inactive) | > 100 µM (inactive) | 38.3 µM (inactive) | 42.2 µM (inactive) | 95.3 µM (inactive) | > 100 µM (inactive) |  | 38.8 µM (inactive) | 62.4 µM (inactive) | 53.8 µM | 71.8 µM (inactive) | 29.7 µM (inactive) | 50.6 µM (inactive) | 37.2 µM (inactive) | 60.4 µM (inactive) | 30.8 µM (inactive) | 55.7 µM (inactive) |
